Reference: patent EP2229935A1, “Peptide derivatives or pharmaceutically acceptable salts thereof, method for producing the same, use of said derivatives and pharmaceutical composition” (Nebolsin, Vladimir Evgenievich, priority 1997, dated 1999)
Read-outs that look alike come from different tables or passages of the source. Marks after values point to notes of the source that are not given here.

Tests used:
superoxide anion-radical = test: Superoxide anion-radical formation in the xantine-xantine oxidase system (chemiluminescence); assay type: biochemical
Experimental: Effect of the compounds of general formula (I) on change in chemiluminescence (CL) determined by hydroxyl radical ( OH) and superoxide anion-radical (O2-), in the model chemical and enzymatic systems.
5 to 10 ml of the test compounds dissolved in water were at needed concentration introduced into a cuvette. A total sample volume was 0.5 ml. • B. Superoxide anion-radical in the mixture of xantine and xantine oxidase [Afanas'ev I., Suslova T., Cheremisina Z. et al. Study of antioxidant properties of metal aspartates.
Incubation medium comprised 5 mM KH2PO4; 0.2 IU/ml xantine oxidase. Xantine at concentration 1 mM was introduced into sample through a dispencer. Luceginine (0.2 mM) was used in this system as luminiscence sensitizer.
CL signal indication was performed by its integration every 10 seconds for 5 minutes. CL flash recording duration after mixing ingredients, depended on a particular process kinetics. For each system, CL light sum (mV) was determined in the control samples without preparations (I-) and in samples comprising respective concentrations of preparations (I+). To estimate CL inhibition (activation) degree, the I+/I- ratio (in relative units) was found in the studied systems.
AOF formation and effect of the test compounds on this process were recorded on the Luminometer-1251 instrument (LKB, Sweden).
Because of such "distension" of the kinetic curve, chemiluminescence light sum was recorded during the first 3-5 minutes which reflected a total amount of light quantums produced in the system till achieving the maximum CL intensity values.

[1] = tested on: Lewis pulmonary carcinoma (LLC); test: Lewis pulmonary carcinoma growth; assay type: in vivo; conditions: mice with LLC, day 12; for Growth inhibition percent: compound in drinking water; for Tumor volume (mm^3): compound in drinking water from 24 hours after transplantation
Experimental: Experiments were carried out on male mice with initial body mass 18-20 g. Each group included 10 animals. […] Administration of compounds II, III, IX, X, XII, XIV, XV, XVI, XVII, XIX, XXII, XLVII in drinking water was commenced 24 hours following transplantation and continued till the end of experiment. Effect of the compounds on Lewis rat pulmonary carcinoma (LLC) was estimated by day 12 of experiment by change in tumor volume expressed in mm^3.

hydroxyl radical = test: Hydroxyl radical formation in the Fenton reagent (chemiluminescence); assay type: biochemical
[2] = tested on: Strain Aichi of type A human influenza virus; assay type: in vivo; conditions: for Survival rate in percent: series with Control - 2 (34.5); for Protection degree in percent: series with Control - 2
[3] = tested on: hepatic P-450 cytochrome system; test: Hexenal sleep duration in mice; assay type: in vivo; conditions: CBF1 mice; oral 3 days, 500 µg/kg; control 25.91 ± 1.57
Experimental: Change in Hexenal sleep (HS) duration is the in vivo measurable index of hepatic P-450 cytochrome system condition.
Studies were carried out on male mice of the lines BALB/c*h75, C57B1/6, CBA, DBA/2, first generation CBF1 and BDF1 hybrides, with initial mass 18-20 g, each group including 10 mice; and on mongrel male guinea pigs with initial mass 250-300 g, each group including 24 animals. All the test compounds (from II to LII) were administered orally in drinking water and for three days at doses 50 and 500 µg/kg. Hexenal hydrochloride at a dose […] of animal mass was administered 24 hours after the last drug administration, except for line BALB/c*h75 mice, which were administered Hexenal at a dose 60 µg/kg at the same terms, and guinea pigs for which Hexenal dose was 30 µg/kg. HS duration was determined in minutes.

mongrel male rats = test: Hypolipidemic activity: experimental hyperlipidemia (atherogenic load); conditions: atherogenic diet; for Kcs: cholesterol index;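 on all read-outs here: serum drawn 18 h after the final dose from rats deprived of food over that interval, groups of 10 animals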
[4] = 0.1 mM, control of the series as in the table
[5] = 1 mM, control of the series 5616 ± 173, 5391 ± 195, 7290 ± 128 or 6776 ± 150
[6] = 0.01 mM, control of the series as in the table
[7] = 1 mM, control of the series 7839 ± 171, 1120 ± 163, 4974 ± 283 or 1332 ± 172
[8] = series with Control - 2 (9.1), […]
[9] = blood, oral last four days, 50 µg/kg
[10] = blood, oral last four days, 500 µg/kg
[11] = blood serum, 10 µg/kg for 10 days

## O=C(O)CCCC(=O)NCCc1ccccc1 [XXI]
Superoxide anion-radical; 0.1 mM
  relative effect: 1+/I-: 0.89
Superoxide anion-radical; [4]
  Chemiluminiscence intensity (mV) + σn-1: 6460 ± 166 mV
Superoxide anion-radical; 1 mM
  relative effect: 1+/I-: 0.58
Superoxide anion-radical; [5]
  Chemiluminiscence intensity (mV) + σn-1: 4232 ± 146 mV
[1]
  Growth inhibition percent: 25%
  Tumor volume (mm^3): 1023 ± 207 mm^3
Hydroxyl radical; 0.01 mM
  relative effect: I+/I-: 0.81
Hydroxyl radical; [6]
  Chemiluminiscence intensity (mV) + σn-1: 4036 ± 186 mV
Hydroxyl radical; 0.1 mM
  relative effect: I+/I-: 0.66
Hydroxyl radical; [4]
  Chemiluminiscence intensity (mV) + σn-1: 3265 ± 184 mV
Hydroxyl radical; 1 mM
  relative effect: I+/I-: 0.05
Hydroxyl radical; [7]
  Chemiluminiscence intensity (mV) + σn-1: 228 ± 72 mV

## CCCCCCCNC(=O)Cc1c[nH]cn1 [XXXIII, N-(IMIDAZOLYL-4-ACETHYL)-HEPTHYLAMINE]
[2]; 50 µg/kg orally
  Survival rate in percent: 63.3%
  Protection degree in percent: 28.8%
[2]; 500 µg/kg orally
  Survival rate in percent: 76.6*^2%
  Protection degree in percent: 76.6%
[3]
  Hexenal sleep duration (minutes): 19.82 ± 2.12* minutes

## COC(=O)[C@@H](N)CCC(=O)N[C@@H](Cc1c[nH]cn1)C(=O)O.Cl.Cl [compound XI, γ-L-GLUTAMYL HISTIDINE α-METHYL ETHER DICHLOROHYDRATE]
Superoxide anion-radical; 0.1 mM
  relative effect: 1+/I-: 0.82
Superoxide anion-radical; [4]
  Chemiluminiscence intensity (mV) + σn-1: 4621 ± 224 mV
Superoxide anion-radical; 1 mM
  relative effect: 1+/I-: 0.40
Superoxide anion-radical; [5]
  Chemiluminiscence intensity (mV) + σn-1: 2263 ± 278 mV
[3]
  Hexenal sleep duration (minutes): 17.71 ± 0.66*** minutes
Hydroxyl radical; 1 µM, control of the series as in the table
  Chemiluminiscence intensity (mV) + σn-1: 1116 ± 90 mV
Hydroxyl radical; [6]
  Chemiluminiscence intensity (mV) + σn-1: 1124 ± 113 mV
Hydroxyl radical; 1 mM
  relative effect: I+/I-: 0.50
Hydroxyl radical; [7]
  Chemiluminiscence intensity (mV) + σn-1: 557 ± 52 mV

## NCCCC(=O)NCCc1c[nH]cn1 [compound XLVII, γ-Aminobutyrylhistamine]
[2]; [8]
  MLT: 10.0 days
  MLT, days: 13.0*^2 days
[2]; 50 µg/kg orally
  Survival rate in percent: 83.3*^2%
  Protection degree in percent: 48.8%
[2]; 500 µg/kg orally
  Survival rate in percent: 79.3*^2%
  Protection degree in percent: 44.8%
Mongrel male rats; [9]
  HDL-CS: 44,1±1,9**^A
  LDL-CS+ VLDL-CS: 42,4±1,7***^A
  Total CS: 86,5±3,9*^A
Mongrel male rats; [10]
  HDL-CS: 40,8±4,8
  LDL-CS+ VLDL-CS: 50,8±3,6**^A
  Total CS: 90,0±2,4
  Triglycerides: 116,7±10,8*^A
Mongrel male rats; oral last four days, 50 µg/kg
  Kcs: 0,96±0,04***^A
Mongrel male rats; oral last four days, 500 µg/kg
  Kcs: 1,27±0,09
[1]
  Growth inhibition percent: 45%
  Tumor volume (mm^3): 826 ± 119* mm^3

## O=C(O)CCCC(=O)NCCc1c[nH]c2ccc(O)cc12 [compound XV, N-GLUTARYLSEROTONIN]
[1]
  Growth inhibition percent: 63%
  Tumor volume (mm^3): 889 ± 67** mm^3

## COc1ccc2[nH]cc(CCNC(=O)CCCC(=O)O)c2c1 [compound XVI, N-GLUTARYL-5-O-METHYLSEROTONIN]
[1]
  Growth inhibition percent: 56%
  Tumor volume (mm^3): 1076 ± 69** mm^3

## O=C(O)CCCC(=O)NCCc1ccccn1 [compound XX, N-GLUTARYL-2-(2-AMINOETHYL)PYRIDINE]
[1]
  Growth inhibition percent: 16%
  Tumor volume (mm^3): 1148 ± 112 mm^3
Hydroxyl radical; 0.01 mM
  relative effect: I+/I-: 0.85
Hydroxyl radical; [6]
  Chemiluminiscence intensity (mV) + σn-1: 4205 ± 234 mV
Hydroxyl radical; 0.1 mM
  relative effect: I+/I-: 0.81
Hydroxyl radical; [4]
  Chemiluminiscence intensity (mV) + σn-1: 4018 ± 201 mV
Hydroxyl radical; 1 mM
  relative effect: I+/I-: 0.11
Hydroxyl radical; [7]
  Chemiluminiscence intensity (mV) + σn-1: 536 ± 124 mV

## O=C(O)c1cccnc1 [nicotinic acid, reference compound]
Mongrel male rats; [11]
  HDL-CS: 42.1 ± 4.2***^1.2
  LDL-CS+ VLDL-CS: 25.7 ± 2.8***^2
  Total-CS: 65.7 ± 3.5
  Triglycerids: 89.4 ± 6.2***^2
Mongrel male rats; 10 µg/kg for 10 days
  Kcs: 0.56***^2
